21 compounds from ChEMBL document CHEMBL4373720, “Discovery of Conformationally Restricted Human Glutaminyl Cyclase Inhibitors as Potent Anti-Alzheimer's Agents by Structure-Based Design” (J Med Chem, 2019) can be followed below.

Calls of active or inactive are those of the source. The rule behind the calls is not given here.

What is called inhibition is the drop in the measured response relative to a control, in per cent.

Series [1] in a line: Cytotoxicity against mouse HT22 cells assessed as cell viability at 10 uM measured after 18 hrs by MTT assay relative to control. In kind it is cell-based, HT-22. The note with it: read-out: Activity. In general terms: Formazan colour is commonly taken as a measure of viable cells.
The species named for series [2] is Mus musculus. The note with it: ICR, 25 mg/kg.
In the next series the target is hERG (KCNH2) (Homo sapiens, UniProt Q12809). In words: Displacement of tracer red from human ERG at 10 uM by fluorescence polarization assay relative to control. The note with it: probe tracer red. In general terms: In fluorescence polarisation assays a small probe gives low polarisation when free and higher when bound to something large.
The species named for series [3] is Mus musculus. The series is described as follows: animal or person. The note with it: ICR, central, 24 h, read-out: INH.
Series [4] can be described thus: Stability in mouse liver microsomes assessed as parent compound remaining measured after 30 mins. The series is classed as ADME, Microsome. The note with it: read-out: Stability. For orientation: Liver microsomes are vesicles of endoplasmic reticulum, rich in cytochrome P450 enzymes.
Series [5] concerns Mus musculus. In words: Neuroprotection in human amyloid beta (3 to 40 residues)-induced ICR mouse model of Alzheimer's disease assessed as inhibition of human amyloid beta N3pE-40 level in brain at 25 mg/kg, ip measured after 24 hrs by sandwich ELISA relative to control. In kind it is functional.
Series [6] in a line: Stability in human liver microsomes assessed as parent compound remaining measured after 30 mins. In kind it is ADME, Microsome. Conditions: read-out: Stability.

hERG (KCNH2), sequence (Q12809 whole entry): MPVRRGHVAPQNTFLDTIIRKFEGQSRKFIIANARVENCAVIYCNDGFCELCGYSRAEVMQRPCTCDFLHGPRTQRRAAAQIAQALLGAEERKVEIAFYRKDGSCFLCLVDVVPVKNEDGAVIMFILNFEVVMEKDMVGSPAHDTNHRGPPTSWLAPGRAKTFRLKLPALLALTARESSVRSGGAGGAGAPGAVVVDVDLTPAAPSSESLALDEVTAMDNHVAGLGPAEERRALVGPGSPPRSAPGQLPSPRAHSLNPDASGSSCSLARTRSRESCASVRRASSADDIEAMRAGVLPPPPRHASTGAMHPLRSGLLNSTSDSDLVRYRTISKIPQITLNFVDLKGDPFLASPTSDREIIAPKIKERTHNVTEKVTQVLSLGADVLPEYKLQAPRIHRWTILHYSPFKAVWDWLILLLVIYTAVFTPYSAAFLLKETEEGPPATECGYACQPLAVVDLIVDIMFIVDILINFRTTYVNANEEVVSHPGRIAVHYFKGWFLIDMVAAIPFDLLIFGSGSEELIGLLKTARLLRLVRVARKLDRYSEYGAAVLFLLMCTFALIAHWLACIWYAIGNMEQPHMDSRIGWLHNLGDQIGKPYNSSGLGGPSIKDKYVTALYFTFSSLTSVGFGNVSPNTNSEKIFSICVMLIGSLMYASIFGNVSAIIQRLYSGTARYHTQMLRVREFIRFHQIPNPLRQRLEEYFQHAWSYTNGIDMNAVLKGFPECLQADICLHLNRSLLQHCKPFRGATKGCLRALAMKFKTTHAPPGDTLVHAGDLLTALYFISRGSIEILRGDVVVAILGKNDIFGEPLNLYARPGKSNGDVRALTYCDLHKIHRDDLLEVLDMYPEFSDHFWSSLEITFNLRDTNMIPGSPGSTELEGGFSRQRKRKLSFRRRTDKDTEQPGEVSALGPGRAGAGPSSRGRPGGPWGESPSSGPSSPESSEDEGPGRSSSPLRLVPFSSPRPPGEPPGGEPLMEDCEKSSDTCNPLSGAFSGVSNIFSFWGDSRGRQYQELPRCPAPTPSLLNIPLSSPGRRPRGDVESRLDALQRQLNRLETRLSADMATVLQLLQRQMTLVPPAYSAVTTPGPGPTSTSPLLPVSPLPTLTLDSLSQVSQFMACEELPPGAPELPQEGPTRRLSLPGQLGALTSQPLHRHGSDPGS

With `CCN(C(=S)NCCCn1cncc1C)c1ccc(OC)c(OC)c1`, the viability at 18 h, 10 µM in series [1] came to 88.4%. For the same compound, the inhibition entry in the series filed under Mus musculus [2] was “inactive”.

With `COc1ccc(N(CC2CCCC2)C(=S)NCCCn2cncc2C)cc1OC`, in series [1], the viability at 18 h, 10 µM stood at 100%. The same compound showed an inhibition at 10 µM at hERG (KCNH2) of 60%. Moreover, the inhibition in vivo at 25 mg/kg in the series filed under Mus musculus [3] was found to be 2.96%.

Take `COc1ccc(N(C(=O)NCCCn2cncc2C)C2CCCCC2)cc1OC`: the viability at 18 h, 10 µM in series [1] was found to be 88.6%. Also, at 10 µM the inhibition on hERG (KCNH2) was 12.2%. Moreover, the inhibition entry in the series filed under Mus musculus [2] is “inactive”.

Take `COc1ccc(N(Cc2ccc(F)cc2)C(=O)NCCCn2cncc2C)cc1OC`: in series [1], the viability at 18 h, 10 µM was 90.7%. The compound also came in with an inhibition at 10 µM on hERG (KCNH2) of 40.6%. In addition, the inhibition result in the series filed under Mus musculus [2] was “inactive”.

For the compound `COc1ccc(N(CCCCc2ccnc(NCCN)c2)C(=O)NCCCn2cncc2C)cc1OC`, the viability at 18 h, 10 µM in series [1] amounted to 82.2%. In addition, the inhibition at 10 µM at hERG (KCNH2) came out at 40.8%. In addition, the inhibition in vivo at 25 mg/kg in the series filed under Mus musculus [3] came to 13.7%.

Take `COc1ccc(N(Cc2ccccc2)C(=S)NCCCn2cncc2C)cc1OC`: the viability at 18 h, 10 µM in series [1] amounted to 80.4%. The compound further came in with an inhibition at 10 µM at hERG (KCNH2) of 71.5%. Besides, the inhibition in vivo at 25 mg/kg in the series filed under Mus musculus [3] came out at 15.3%.

In the case of `COc1ccc(N(Cc2ccc(F)cc2)C(=S)NCCCn2cncc2C)cc1OC`, the viability at 18 h, 10 µM in series [1] came to 100%. On hERG (KCNH2), this compound had an inhibition at 10 µM of 83.5%. Further, the inhibition result in the series listed under Mus musculus [2] is “inactive”.

On to `COc1ccc(N(C(=S)NCCCn2cncc2C)C2CCCCC2)cc1OC`, for which the viability at 18 h, 10 µM in series [1] came out at 78.3%. Further, the inhibition at 10 µM at hERG (KCNH2) was 59.4%. Besides, in the series filed under Mus musculus [3], the inhibition in vivo at 25 mg/kg turned out to be 4.01%.

Regarding `COc1ccc(N(C(=S)NCCCn2cncc2C)C2CCCC2)cc1OC`, the viability at 18 h, 10 µM in series [1] was found to be 81.7%. This compound came in with an inhibition at 10 µM on hERG (KCNH2) of 31.8%. Also, the inhibition in vivo at 25 mg/kg in the series filed under Mus musculus [3] was found to be 1.17%.

Regarding `COc1ccc(N(Cc2cccnc2)C(=O)NCCCn2cncc2C)cc1OC`, the figures for the remaining at 0.5 h in series [4] and in series [6] were 12.8% and 44%, respectively. For the same compound, the viability at 18 h, 10 µM in series [1] was 100%. Besides, 10 µM produced 33.2% inhibition on hERG (KCNH2). For the same compound, the inhibition in vivo at 25 mg/kg in the series on Mus musculus [5] came out at 22.9%; in the series listed under Mus musculus [3], 26%.

Consider `COc1ccc(N(Cc2ccncc2)C(=S)NCCCn2cncc2C)cc1OC`, for which the viability at 18 h, 10 µM in series [1] is 100%. On hERG (KCNH2), this compound registered an inhibition at 10 µM of 32.3%. Besides, the inhibition in vivo at 25 mg/kg in the series filed under Mus musculus [3] worked out at 11.6%.

As for `COc1ccc(N(CCCCc2ccnc(N)c2)C(=O)NCCCn2cncc2C)cc1OC`, the remaining at 0.5 h in series [4] was 21.6%; in series [6] it was 43.1%. Moreover, the viability at 18 h, 10 µM in series [1] amounted to 100%. This compound also came in with an inhibition at 10 µM on hERG (KCNH2) of 48%. Further, the inhibition in vivo at 25 mg/kg was 22.7% in the series on Mus musculus [5] and 24.4% in the series listed under Mus musculus [3].

For `COc1ccc(N(C(=S)NCCCn2cncc2C)C(C)C)cc1OC`, the viability at 18 h, 10 µM in series [1] came out at 100%. For the same compound, at hERG (KCNH2), the inhibition at 10 µM was 46.3%. Further, in the series filed under Mus musculus [3], the inhibition in vivo at 25 mg/kg was found to be 6%.

`COc1ccc(N(CC2CCCC2)C(=O)NCCCn2cncc2C)cc1OC`: the viability at 18 h, 10 µM in series [1] was found to be 100%. The compound further showed an inhibition at 10 µM on hERG (KCNH2) of 29.6%. Moreover, the inhibition in vivo at 25 mg/kg in the series listed under Mus musculus [3] was determined as 2.96%.

In the case of `COc1ccc(N(Cc2ccc(Cl)cc2)C(=S)NCCCn2cncc2C)cc1OC`, the viability at 18 h, 10 µM in series [1] amounted to 100%. At hERG (KCNH2), this compound registered an inhibition at 10 µM of 86.8%. Moreover, the inhibition in vivo at 25 mg/kg in the series listed under Mus musculus [3] was 0.73%.

As to `COc1ccc(N(Cc2cccnc2)C(=S)NCCCn2cncc2C)cc1OC`, in series [1], the viability at 18 h, 10 µM stood at 89.3%. This compound showed an inhibition at 10 µM on hERG (KCNH2) of 34.5%. For the same compound, the inhibition in vivo at 25 mg/kg in the series filed under Mus musculus [3] worked out at 5.31%.

Regarding `COc1ccc(N(C(=S)NCCCn2cncc2C)C2CCC2)cc1OC`, the viability at 18 h, 10 µM in series [1] is 86.7%. The same compound came in with an inhibition at 10 µM at hERG (KCNH2) of 11.5%. The inhibition result in the series listed under Mus musculus [2] is “inactive”.

On to `COc1ccc(N(CC(C)C)C(=O)NCCCn2cncc2C)cc1OC`, for which the viability at 18 h, 10 µM in series [1] was 100%. The compound also yielded an inhibition at 10 µM at hERG (KCNH2) of 23.7%. Besides, in the series listed under Mus musculus [2], the inhibition result is “inactive”.

Consider `COc1ccc(N(Cc2cccc(Cl)c2)C(=S)NCCCn2cncc2C)cc1OC`, for which the viability at 18 h, 10 µM in series [1] was 88.2%. In addition, on hERG (KCNH2), the inhibition at 10 µM turned out to be 86%. For the same compound, in the series listed under Mus musculus [2], the inhibition result is “inactive”.

As for `COc1ccc(N(CC(C)C)C(=S)NCCCn2cncc2C)cc1OC`, the viability at 18 h, 10 µM in series [1] came out at 100%. This compound displayed an inhibition at 10 µM at hERG (KCNH2) of 39.9%. In addition, in the series listed under Mus musculus [2], the inhibition result was “inactive”.

On to `COc1ccc(N(Cc2cccc(F)c2)C(=S)NCCCn2cncc2C)cc1OC`, for which the viability at 18 h, 10 µM in series [1] was 91.7%. This compound also gave an inhibition at 10 µM on hERG (KCNH2) of 77.6%. Moreover, in the series listed under Mus musculus [3], the inhibition in vivo at 25 mg/kg came out at 6.66%.
